Experimental data published in patent publication US7148204B2, “Antisense modulation of bcl-x expression” (Isis Pharmaceuticala, Inc., priority 1998, dated 2006).

Experiments:
Format in all cases: cell-based, human
bcl-x protein = assay: Western blot analysis of bcl-x protein levels in A549
Experimental: Western blot analysis (immunoblot analysis) was carried out using standard methods. Generally, cells were harvested 16–20 hours after oligonucleotide treatment, washed once with PBS, suspended in Laemmli buffer (100 μl/well), boiled for 5 minutes and loaded on a 16% SDS-PAGE gel. Gels were run for 1.5 hours at 150 V, and transferred to membrane for western blotting. Appropriate primary antibody directed to bcl-x was used, with a radiolabelled or fluorescently labeled secondary antibody directed against the primary antibody species. Bands were visualized using a PHOSPHORIMAGER™ (Molecular Dynamics, Sunnyvale Calif.).
ISIS 15999 and 16009 were tested for the ability to reduce bcl-x protein levels in A549.

CEM-C7 cells = assay: Viable cell counts of CEM cells (propidium iodide exclusion, flow cytometry); settings: for viability by propidium iodide exclusion: 20 μM electroporation
Experimental: CEM-C7 cells (Norman et al., 1978), a glucocortocoid sensitive clone of the human T-lymphoblastic cell line CEM, were cultured between 5×10^4 to 10^6 cells/ml in RPMI 1640 medium containing 10% heat-inactivated fetal bovine serum (FBS), streptomycin, penicillin G, 15 mM HEPES, 2 mM sodium pyruvate, at 37° C. in a humid, 5% CO2 incubator. Viable cell counts were performed by propidium iodide staining and flow cytometry.
CEM-C7 cells were electroporated with the indicated concentrations of oligonucleotides at 150 volts, 1,700 microFaraday (μF), and a resistance setting of 5 with a BTX electroporation apparatus (Genetronics, San Diego, Calif.) in 2-mm gap cuvettes containing 5×10^6 cells in 200 μl RPMI plus 20% FBS on ice. Cells were left on ice for 10 minutes, then plated in 5 ml complete media.

CEM cells = assay: Combination index (median-effect) of bcl-x antisense with chemotherapeutic drugs in CEM cells
Excerpt: To determine if synergy existed between the bcl-x and the chemotherapeutic drugs dexamethasone or doxorubicin, the median-effect principle of Chou (“The median-effect principle and the combination index for quantification of synergism and antagonism. In Synergism and Antagonism in Chemotherapy, T.-C. Chou and D. Rideout, eds., Academic Press, New York, pp. 61–102) was used to determine dose-effect parameters for the drugs individually and for the combinations of bcl-x antisense plus dexamethasone or bcl-x antisense plus doxorubicin. This method analyzes the shape of the drug dose-response curves for each drug, combination of drugs and quantitates synergism/antagonism at different concentrations. Median effect computer software (CalcuSyn for Windows, Biosoft, Ferguson, Mo.) was used to generate the combination index (CI), where a CI value of <1, =1, >1 indicates synergism (i.e., the effect of drug combination is greater than anticipated from the additive effect of the individual agents), additive effect, and antagonism, respectively.
Treatment of CEM cells with bcl-x antisense oligonucleotide makes the cells more sensitive to killing by doxorubicin or dexamethasone (FIGS. 9A–B). These, or similar drugs, are used frequently for acute lymphocytic leukemia treatment. The use of any of these therapeutic agents in combination with one or more antisense oligonucleotides to bcl-x is within the scope of the present invention. For these experiments, the CEM cells were electroporated with either the bcl-x antisense or control oligonucleotides, cultured for one day, then treated with the indicated concentrations of drug. […] A CI of <0.3 is classified as a strong degree of synergism, and 0.3 to 0.7 is classified as synergism. […] For the doses tested of doxorubicin, the CI ranged from 0.7 to 1.3.

TCCCGGTTGCTCTGAGACAT (5-10-5 2'-MOE gapmer, phosphorothioate, further chemistry not given here) [ISIS 15999]
bcl-x protein levels (bcl-x protein): reduce bcl-x protein levels in a dose-dependent manner | viability by propidium iodide exclusion (CEM-C7 cells; CEM cells, 48 hours): 33% | viability by propidium iodide exclusion (CEM-C7 cells; CEM cells, 72 hours): 46% | cell count less than control antisense treated cells (CEM-C7 cells; CEM cells, highest concentration, 20 hours after electroporation): 40% | viability of CEM cells (CEM-C7 cells; twenty hours after electroporation): dose dependent decrease | combination index (CI) (CEM cells; with dexamethasone, three highest doses): < 0.3 | combination index (CI) (CEM cells; with dexamethasone, two lower doses): 0.3 to 0.4 | combination index (CI) (CEM cells; with doxorubicin, doses tested): 0.7 to 1.3
